Common to all, as to type: cell-based, Desulfitobacterium dichloroeliminans strain DCA1
The test system of data set [1] is Desulfitobacterium strain DCA1. In words: Substrate range determination: growth on and dechlorination product from chlorinated substrates.
Data set [2] concerns Desulfitobacterium strain DCA1. In words: Inhibition of 1,2-DCA dechlorination / toxicity to strain DCA1.
For data set [3], the system named is Desulfitobacterium strain DCA1. In words: Growth of strain DCA1 on other electron acceptors. Conditions: for growth in the presence of electron acceptor: 3mM, electron donors lactate and H2.

Here are results for 19 molecules from EP1352977A2, “Novel Desulfitobacterium strain for the degradation of chloroalkenes” (UNIVERSITEIT GENT, priority 2002, dated 2003).

The inhibition is the percentage by which the read-out fell short of the control.

Entries after “also recorded” stand apart in the source; their conditions may differ.

For `ClCC(Cl)Cl` [1,1,2-TCA, 1,1,2-trichloroethane], the “growth of strain DCA1” value in data set [1] is “sustained growth; also recorded: supported growth”.
On to `ClCC(Cl)CCl` [1,2,3-trichloropropane], for which the “dechlorination reaction” value in data set [1] was “no dechlorination reaction was observed”.
For the molecule `CCC(Cl)CCl` (stereo not drawn) [1,2-DCB, 1,2-dichlorobutane], the “growth of strain DCA1” value in data set [1] is listed as “sustained growth”.
In the case of `CC(Cl)CCl` (stereo not drawn) [1,2-dichloropropane], the “growth of strain DCA1” value in data set [1] is “sustained growth”.
As to `OCC(Cl)CCl` (stereo not drawn) [2,3-DC-propanol], the “dechlorination reaction” value in data set [1] is on record as “no dechlorination reaction was observed”.
In the case of `ClC(Cl)Cl` [Chloroform, reference compound], the inhibition at 50 µM in data set [2] (Desulfitobacterium dichloroeliminans, DCA1, read-out: inhibition of the dechlorination of 1,2-DCA) was less than 50%.
As to `CC(Cl)C(C)Cl` [D-2,3-DCB, D-2,3-dichlorobutane], the “growth of strain DCA1” value in data set [1] was “sustained growth”.
`O=C(O)/C=C/C(=O)O` [Fumarate]: the “toxicity to strain DCA1” value in data set [2] is “not toxic”. For the same molecule, in data set [3], the “conversion as electron acceptors” value was “not converted”.
Regarding `CC(Cl)C(C)Cl` [L-2,3-DCB, L-2,3-dichlorobutane], in data set [1], the “growth of strain DCA1” value was “sustained growth”.
Consider `O=NO` [NO2^-], for which the “inhibition of the dechlorination” value in data set [2] (2.5 mM) is “fully inhibited”. Also, the “conversion as electron acceptors” value in data set [3] is “not converted”.
Take `O=[N+]([O-])O` [NO3^-]: in data set [3], the “growth in the presence of electron acceptor” value is recorded as “grew”.
In the case of `O=O` [O2], the “conversion as electron acceptors” value in data set [3] is on record as “not converted”.
In the case of `CCCI` [Propyliodide, reference compound], in data set [2] (50 µM, in the dark, light reversible), the “inhibition of the dechlorination” value was “fully inhibited”.
As for `O=S(O)(O)=S` [S2O3^2-], in data set [3], the “growth in the presence of electron acceptor” value is “grew”.
The same measure, in the same setting: in the case of `O=S(O)O` [SO3^2-] it was “grew”.
Regarding `O=S(=O)(O)O` [SO4^2-], the “conversion as electron acceptors” value in data set [3] is given as “not converted”.
In the case of `Cl[C@H]1[C@H](Cl)[C@@H](Cl)[C@@H](Cl)[C@H](Cl)[C@H]1Cl` [lindane], the “dechlorination reaction” value in data set [1] is listed as “no dechlorination reaction was observed”.
`C[C@H](Cl)[C@@H](C)Cl` [meso-2,3-DCB, meso-2,3-dichlorobutane]: in data set [1], the “growth of strain DCA1” value is reported as “sustained growth”.
On to `O=C(O)[C@@H](Br)[C@@H](Br)C(=O)O` [meso-2,3-dibromosuccinate], for which, in data set [1], the “dechlorination reaction” value is reported as “no dechlorination reaction was observed”.
